The test system of series [1] is α-isomaltosylglucosaccharide-forming enzyme. Put plainly: Action on saccharides (substrates), Enzyme of Strain N75. The series is classed as biochemical, Bacillus globisporus N75. Details: key: −: it showed no change; +: it showed a slight reduction of the color spot of the substrate and the formation of other reaction product; ++: it showed a high reduction of the color spot of the substrate and the formation of other reaction product; +++: it showed a substantial disappearance of the substrate spot and the formation of other reaction product. As to conditions: two units/g substrate, substrate 2% (w/v), 30° C., pH 6.0, 24 hours, TLC. Put shortly:
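Purified enzyme from each strain was added at 2 units/g substrate to each of 24 saccharides at 2% (w/v). Incubation ran 24 h at 30° C, pH 6.0, or pH 8.4 for the A19 enzyme. TLC compared reaction mixtures before and after incubation to show whether each substrate was acted on.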

Series [2] has as its system Small intestinal mucosal enzyme. The series can be described thus: Digestion test in vitro, small intestinal mucosal enzyme.
Series [3] is described as follows: pH stability of cyclotetrasaccharide solution. As to conditions: 4% (w/v), 100° C. for 24 hours; for Purity (%) after heating: HPLC. The series is classed as physicochemical. The protocol: Eight milliliters of each solution was placed in a glass test tube, followed by sealing the test tube and heating the solution at 100° C. for 24 hours. After cooling, each solution was measured for coloration degree and determined for purity on HPLC. The coloration degree was evaluated based on the absorbance in a cell with a 1-cm light pass at a wavelength of 480 nm.

Series [4] is described as follows: Amino carbonyl reaction with glycine. As to conditions: 10% (w/v) with 1% (w/v) glycine, pH 7.0, 100° C. Type of series: physicochemical. The protocol: Four milliliters of the resulting solution were placed in a glass test tube, sealed, and heated at 100° C. for 30 to 90 min. After allowing to stand for cooling at ambient temperature, each of the resulting solutions was measured for coloration degree to examine on their amino carbonyl reactivity. The coloration degree was evaluated based on the absorbance in a cell with 1-cm light pass at a wavelength of 480 nm.

Series [5] concerns Escherichia coli IFO 3301. Put plainly: Assimilation test, Escherichia coli. The series is classed as cell-based. As to conditions: PYF medium with 0.5% saccharide, 37° C., four days, anaerobic.
Series [6] can be described thus: Amino carbonyl reaction with polypeptone. Type of series: physicochemical. The settings on record: 10% (w/v) with 5% (w/v) polypeptone, 100° C., minus the control. The protocol: Four milliliters of the resulting solution were placed in a glass test tube, sealed, and heated at 100° C. for 30 to 90 min. After allowing to stand for cooling at ambient temperature, each of the resulting solutions was measured for coloration degree to examine on their amino carbonyl reactivity. In parallel, as a control, a solution with only polypeptone was provided and similarly treated as above. The coloration degree was evaluated based on the level of the absorbance, measured in a cell with 1-cm light pass at a wavelength of 480 nm, minus the control.

Turning to `OC[C@@H](O)[C@@H](O[C@H]1O[C@H](CO)[C@@H](O)[C@H](O)[C@H]1O)[C@H](O)[C@@H](O)CO` [Maltitol, reference compound], the “Enzymatic action, Enzyme of Strain N75” value in series [1] is on record as “−”. For the same molecule, in series [2], the “Decomposition percentage (%) by digestive enzyme” value amounted to 4.0%.
For the molecule `OCC1OC2OCC3O[C@H](O[C@H]4C(O)C(CO)OC(OCC5O[C@H](O[C@@H](C1O)C2O)C(O)C(O)[C@@H]5O)C4O)C(O)C(O)[C@@H]3O` (stereo partly drawn) [Cyclotetrasaccharide, cyclo{→6)-α-D-glucopyranosyl-(1→3)-α-D-glucopyranosyl-(1→6)-α-D-glucopyranosyl-(1→3)-α-D-glucopyransoyl-(1→}], the “Coloration degree (A480 nm)” value in series [3] (pH 2.0 (Acetate buffer)), in series [3] (pH 3.0 (Acetate buffer)), in series [3] (pH 4.0 (Acetate buffer)), in series [3] (pH 5.0 (Acetate buffer)), in series [3] (pH 6.0 (Tris-HCl buffer)) and in series [3] (pH 7.0 (Tris-HCl buffer)) was 0.00 A480 nm throughout. Moreover, the “Coloration degree (A480 nm)” value in series [3] (pH 8.0 (Tris-HCl buffer)), in series [3] (pH 9.0 (Ammonium buffer)), in series [3] (pH 10.0 (Ammonium buffer)), in series [4] (heating time 0 min), in series [4] (heating time 30 min) and in series [4] (heating time 60 min) was 0.00 A480 nm each time. The “Coloration degree (A480 nm)” value in series [4] (heating time 90 min), in series [6] (heating time 0 min), in series [6] (heating time 30 min), in series [6] (heating time 60 min) and in series [6] (heating time 90 min) was 0.00 A480 nm throughout. Further, the “Purity (%) after heating” value in series [3] (pH 2.0 (Acetate buffer)) is on record as 93%; in series [3] (pH 3.0 (Acetate buffer)), 100%; in series [3] (pH 4.0 (Acetate buffer)) it was 100%; in series [3] (pH 5.0 (Acetate buffer)), 100%; in series [3] (pH 6.0 (Tris-HCl buffer)), 100%; in series [3] (pH 7.0 (Tris-HCl buffer)), 100%. Moreover, the “Purity (%) after heating” value in series [3] (pH 8.0 (Tris-HCl buffer)), in series [3] (pH 9.0 (Ammonium buffer)) and in series [3] (pH 10.0 (Ammonium buffer)) was 100% in each case. Besides, the Assimilability result in series [5] is “− (judged negative (−) when the post culture had a pH of 6.0 or higher)”.

The values above are taken from patent US7811797B2, “α-isomaltosylglucosaccharide-forming enzyme, process and uses of the same” (Kabushiki Kaisha Hayashibara Seibutsu Kagaku Kenkyujo, priority 2000, dated 2010).
